In one data set the test system is NO production. The note with it: previous study; read-out: inhibitory activity on NO production IC50; cited from earlier work.
Data set [1] has as its system NO production in LPS-stimulated RAW264.7 cells. The data set can be described thus: Inhibitory assay of NO production in LPS-stimulated RAW264.7 cells. Format: cell-based. The note with it: Mus musculus, LPS 5 μg/mL, 24 h treatment. As for the experimental part: (§1) Macrophages may be a potential therapeutic target for inflammatory diseases. Activated macrophages release pro-inflammatory mediators, such as NO, reactive oxygen, interleukin-1 beta, tumor necrosis factor-alpha and other inflammatory mediators, which play important roles in biological defense. […] In the present study, four limonoids and N^G-monomethyl-L-arginine acetate (L-NMMA), an inducible nitric oxide synthase (iNOS) inhibitor, were evaluated for their inhibitory effects on NO production in LPS-stimulated RAW264.7 cells (Figure 5). To determine safe concentrations, the cytotoxicities of these limonoids against RAW 264.7 were assessed by the MTT assay.
An inhibitory assay of nitric oxide production was performed according to a method reported previously with slight modifications. Briefly, RAW264.7 cells (5 × 10^4 cells in 100 μL) were seeded onto 96-well microplates and incubated for 24 h. D-MEM (100 μL) containing test samples (final concentration of 100, 30, 10 or 3 μM) dissolved in DMSO (final concentration 0.2%) and LPS (final concentration of 5 μg/mL) were added. After cells had been treated for 24 h, 50 μL of 0.1% N-(1-naphtyl)ethylenediamine in H2O and 50 μL of 1% sulfanilamide in 5% phosphoric acid were added. After being incubated for 30 min, the absorbance of each well was read at 570 nm using a microplate reader. […]

The subject of the next data set is RAW264.7 cells. Kind of data set: RAW264.7 cell proliferation / cytotoxicity by MTT assay. The data set is classed as cell-based. As for the experimental part:
as §1
RAW264.7 cell proliferation was examined according to a method reported previously with few modifications. Briefly, RAW264.7 cells (5 × 10^4 cells in 100 μL) were seeded onto 96-well microplates and incubated for 24 h. D-MEM (100 μL) containing test samples (final concentration of 100, 30, 10 or 3 μM) dissolved in DMSO (final concentration 0.2%) was added. After the cells had been treated for 24 h, the MTT solution was added. After 3 h of incubation, 20% sodium dodecyl sulfate (SDS) in 0.1 M HCl was added to dissolve the formazan produced by the cells. The absorbance of each well was read at 570 nm using a microplate reader. The optical density of vehicle control cells was assumed to be 100%.

Setting [2] is: at the effective concentration 10 μM.

pIC50: −log10 of the molar value.

As usually defined, the pIC50 is −log10 of the IC50, conventionally taken in molar units. On to “6α-acetoxy-7α-deacetoxy-7α-hydroxygedunin”, for which the pIC50 in the data set on NO production is 5.03.

For `CC(=O)O[C@H]1[C@@H](OC(C)=O)[C@]2(C)[C@H](CC[C@@]3(C)[C@H](c4ccoc4)OC(=O)[C@H]4O[C@@]423)[C@@]2(C)C=CC(=O)C(C)(C)[C@H]12` [6α-acetoxygedunin], the pIC50 in the data set with NO production was 5.10.

With `CC(=O)O[C@@H]1[C@H](O)C2C(C)(C)C(=O)C=C[C@]2(C)C2CC[C@@]3(C)[C@H](c4ccoc4)OC(=O)[C@H]4O[C@]43[C@@]21C` (stereo partly drawn) [6α-hydroxygedunin], the pIC50 in the data set on NO production was 4.72.

Take `CC1(C)C(=O)C=CC2(C)C1CC(O)C1(C)C2CCC2(C)C(c3ccoc3)OC(=O)C3OC321` (stereo not drawn) [7-deacetoxy-7-hydroxygedunin]: the negative-log IC50 (pIC50) in the data set on NO production is 5.08.

For the molecule `CC1(C)C(=O)C=CC2(C)C1CC(=O)C1(C)C2CCC2(C)C(c3ccoc3)OC(=O)C3OC321` (stereo not drawn) [7-deacetoxy-7-oxogedunin], in the data set with NO production, the negative-log IC50 (pIC50) was 4.89.

As usually defined, the melting point is the temperature, or range, at which the solid turns liquid. `COC(=O)CC1C(C)(C)C(OC(=O)C(C)C)C2(O)CC3(O)C4=CC(=O)OC(c5ccoc5)C4(C)CCC3C1(C)C2=O` (stereo not drawn) [Compound 1, Carapanolide T]: the melting point lay within 83 to 85 °C. In data set [1], this molecule showed a pIC50 of 4.66. The “cytotoxicity against RAW264.7” value in the data set with RAW264.7 cells (at 30 μM) is listed as “low cytotoxicity”. Moreover, the “cytotoxicity against RAW264.7” value in the data set with RAW264.7 cells (setting [2]) is “not at the effective concentration”.

As for `CC=C(C)C(=O)OC1C2(O)CC3(O)C4=CC(=O)OC(c5ccoc5)C4(C)CCC3C(C)(C2=O)C(CC(=O)OC)C1(C)C` (stereo not drawn) [Compound 2, Carapanolide U], the melting point was in the range of 133 to 136 °C. This molecule also showed a pIC50 in data set [1] of 4.63. Further, the “cytotoxicity against RAW264.7” value in the data set with RAW264.7 cells (at 1–30 μM) is “did not show cytotoxicities”. The “cytotoxicity against RAW264.7” value with RAW264.7 cells (setting [2]) was “not at an effective concentration”.

In the case of `CC(=O)O[C@@H]1C[C@H]2C(C)(C)C(=O)C=C[C@]2(C)[C@H]2CC[C@@]3(C)[C@H](c4ccoc4)OC(=O)[C@H]4O[C@]43[C@@]21C` [gedunin], the negative logarithm of the IC50 (pIC50) in the data set with NO production was 5.34.

With carapanolide J, in the data set on NO production, the pIC50 is 4.43.

Values taken from publication PMC6331856, “Carapanolides T–X from Carapa guianensis (Andiroba) Seeds” (Molecules, 2015).
